Data: patent US20220354764A1, “METHODS FOR PROMOTING HAIR GROWTH” (Follica, Inc., priority 2018, published 2022)

How the values were obtained:
[1] = Minoxidil blood serum concentration after needling device treatment plus 2%/5% MTS (Example 1); format: in vivo, human
Procedure: A multicenter randomized study was conducted to assess the safety and efficacy of treatment methods using a needling device in conjunction with minoxidil in adult males with androgenetic alopecia (AGA). The study involved 14 subjects, male, age 18-40 years, with a diagnosis of androgenetic alopecia. Data for 46 additional subjects is being gathered. The subjects were randomized and then completed treatment across 12 weeks (total of 3, 6, or 12 treatments with the needling device per randomization assignment, n=20 per arm). A final evaluation was conducted on Day 85 with no additional follow up required.
On Day 0, subjects were randomized to receive treatment with the needling device on a weekly (12 treatments), bi-weekly (6 treatments), or monthly (once every 4 weeks, for 3 total treatments) basis for 12 weeks, in a 1:1:1 ratio according to a centrally maintained randomization table. Treatment of the vertex (including transitional areas) with the needling device was initiated on Day 1.
Subjects in the monthly arm received needling device treatment once every 4 weeks, for 3 procedures total (e.g., needling device treatment on Days 1, 29, 57). Subjects in the bi-weekly arm received needling device treatment once every 2 weeks, for 6 procedures total (e.g., needling device treatment on Days 1, 15, 29, 43, 57, and 71). Subjects in the weekly arm received needling device treatment once every week, for 12 procedures total (e.g., needling device treatment on Days 1, 8, 15, 22, 29, 36, 43, 50, 57, 64, 71, and 78).
During needling treatments, the translation speed of the device, which is the speed at which the needling device was glided over the affected skin area, was 2 cm/second, while keeping the device perpendicular to the surface to help achieve a needle strike of 0.8 mm (+/−0.2 mm) micro-needling depth. The device needle array has 12 needles and the number of array oscillations per second was set at 120. The treatment width was 0.9 cm. Two overlapping passes were made in vertical and horizontal directions. As a result, 1600 needle strikes per cm^2 were performed. The micro-needling device was glided across the affected area of the skin such that each pass across the area of skin aligned with the prior pass across the skin, without gaps of skin between the passes, in a “mow the lawn” approach. Each pass of the micro-needling device started with a gliding start and a smooth retraction of the device from the skin area following each pass. The micro-needling device was applied to the skin area with consistent, light pressure, allowing the device to glide along the skin. The configuration of needles in the needle array consists of 2 offset rows of 6 microneedles.
A post-treatment visit was required following each subject's first treatment with the needling device across all study arms to confirm wound closure. The post-treatment visit was performed 24-36 hours following the first treatment with the needling device. If adequate wound closure and skin normality was not achieved, the subject would return for a second post-treatment visit 24-36 hours following the first post-treatment visit. Once adequate wound closure was confirmed, subjects were provided study drug to be applied in accordance with the instructions provided herein (vertex, including transitional areas). The very first application of study drug was performed in-clinic during the first post-treatment visit in which wound closure is confirmed. […]

[2] = tested on: adult males with androgenetic alopecia (AGA); test: Hair count by macrophotography after needling device treatment plus minoxidil (Example 1); format: in vivo, human; conditions: needling device plus 2%/5% MTS, 12 weeks; comparison: 12% increase in Olsen 2002 and 2007
Excerpt: A macrophotography procedure as referred to herein includes identifying the designated photography site, clipping hair within targeted photography site to a length of 1 mm, and creating a needlestick tattoo in the center of the targeted photography site for future orientation (pressure was applied until any bleeding stops), mapping the position of the tattoo, and recording the measurements on the provided documentation. The procedure further includes using the tattoo as a reference point take the first Baseline photograph without the contact plate, and again, using the tattoo as a reference point, performing remaining Baseline photography with the contact plate. From the identified designated photography site, the width of each hair is determined using an electronic caliber measurement. All hairs greater than […] are classified as terminal hairs. […]
A macrophotography procedure as described above was carried out for each subject, using a single, circular 1.9 cm^2 site in the leading edge of an actively balding area of the vertex as the designated photography site. Total Area Hair Count (TAHC), Target Area Hair Width (TAHW) and Target Area Hair Density/Darkness (TAHD) were assessed via quantitative image analysis to determine non-vellus hair count (primary and secondary endpoint) and total hair count (non-vellus and vellus hair, secondary endpoint). […]

## Nc1cc(N2CCCCC2)nc(N)[n+]1[O-] [minoxidil]
[1]; Day 1, needling device plus MTS regimen
  serum level average, Day 1: 1.29 ng/mL
[1]; Day 29, needling device plus MTS regimen
  serum level average, Day 29: 0.99 ng/mL
[1]; Day 57, needling device plus MTS regimen
  serum level average, Day 57: 0.79 ng/mL
[1]; Day 85, final study visit, needling device plus MTS regimen
  serum level average, Day 85: 0.65 ng/mL
[1]; individual maximum, needling device plus 2%/5% MTS step-up
  maximum serum level recorded in the study: 5.5 ng/mL
[2]
  subjects showing an increase in non-vellus target area hair count greater than prior large minoxidil studies: 79%
